# Key:
# [1] = target: T1, α-Glucosidase (Saccharomyces cerevisiae, UniProt P53341); experiment: biochemical; details: read-out: IC50 value, α-Glucosidase inhibitory activity
# T1 construct: purchased Sigma Aldrich G0660-750UN
# Protocol: α-Glucosidases, enzymes anchored in the brush border of the small intestine, are responsible for catalysing the hydrolysis of carbohydrates.
# α-Glucosidase (G0660-750UN, Sigma Aldrich, St. Louis, MO) and 4-nitrophenyl α-D-glucopyranoside (PNPG, Macklin) were dissolved in phosphate buffer (pH 6.8, 100 mM), and the test compounds were dissolved in DMSO solution. The experiment was divided into blank group, control group, sample blank group and sample group. The reagents were loaded in 96-well plates at the dose of the table (Table 3). The solution was bathed in 37 °C water for 10 min, after the end, enzyme solution was added. After reaction at 37 °C for 20 min, 70 µL Na2CO3 solution ([…]) was added to stop the reaction. All experiments were run in triplicate. […] Since PNPG can produce glucose and p-nitrophenol (PNP) under the action of α-glucosidase, PNP has the greatest absorption at 405 nm. The absorbance was determined by the microplate reader, and the inhibition rate of α-glucosidase and the IC50 value of each sample were calculated according to the formula. Inhibition rate %={[(AC−AB)−(AS−ASB)]/(AC−AB)}×100% where AC is the absorbance of control group; AB is the absorbance of blank group; AS is the absorbance of sample group; ASB is the absorbance of sample blank group.
# [2] = target: T2, aldose reductase (ALR2) (Mus musculus, UniProt P45376); experiment: In vitro ALR2 inhibitory activity (crude enzyme, NADPH decrease at 340 nm); format: biochemical, mice; details: read-out: IC50 value, ALR2 inhibitory activity
# T2 construct: After homogenisation and centrifugation, the crude ALR2 from mice was obtained; from tissue
# Protocol: The enzyme aldose reductase (ALR2) is a member of the aldo–keto reductase superfamily. The development and progression of chronic diabetic complications are confirmed to be quite related to the activation and/or over expression of ALR2[25]. Therefore, ALR2 inhibitors may play a critical role in preventing or treating these complications.
# After homogenisation and centrifugation, the crude ALR2 from mice was obtained. The inhibitory activity of the compounds on ALR2 was carried out using crude enzyme and different concentrations of the compounds (1–1000 µg/ml) in 200 mM PBS (pH 6.2) containing 0.10 mM NADPH. The reaction was initiated by addition of glyceraldehyde and the decrease in the optical density of NADPH at 340 nm was recorded for 3 min. All experiments were run in triplicate. IC50 of the compounds was calculated. The flavonoid quercetin was used as a reference in the ALR2 assay.
# T1 sequence (P53341 whole entry): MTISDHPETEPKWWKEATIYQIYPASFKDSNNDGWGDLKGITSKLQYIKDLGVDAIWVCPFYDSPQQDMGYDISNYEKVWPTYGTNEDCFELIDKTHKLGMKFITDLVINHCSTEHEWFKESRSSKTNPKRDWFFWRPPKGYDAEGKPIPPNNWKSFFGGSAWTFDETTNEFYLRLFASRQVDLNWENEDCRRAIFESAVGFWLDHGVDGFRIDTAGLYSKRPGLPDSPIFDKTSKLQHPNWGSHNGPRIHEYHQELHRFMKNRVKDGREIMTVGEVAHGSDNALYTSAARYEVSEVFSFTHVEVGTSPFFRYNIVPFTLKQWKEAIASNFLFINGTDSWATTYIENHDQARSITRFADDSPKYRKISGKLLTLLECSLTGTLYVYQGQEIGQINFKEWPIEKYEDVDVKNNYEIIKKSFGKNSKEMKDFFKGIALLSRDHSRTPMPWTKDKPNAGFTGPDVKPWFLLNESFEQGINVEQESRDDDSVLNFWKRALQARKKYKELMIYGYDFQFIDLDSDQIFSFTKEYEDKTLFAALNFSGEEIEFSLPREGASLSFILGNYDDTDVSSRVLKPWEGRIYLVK
smiles,measurement,setting,value
COc1cc(/C=C/c2ccc(OCCCCCCO[N+](=O)[O-])cc2)cc(OC)c1 [3c],IC50,[1],83.1 ± 16.2 µM
same,IC50,[2],299 ± 22.6 µM
